Measurements reported in patent US20050058636A1, “Medicament against thrombotic diseases” (priority 2002, published 2005).

Experiments:
platelet-rich plasma = assay: Aggregation of platelet-rich plasma; assay type: cell-based; settings: Adenosin-diphosphate (5 μM)-induced; competitors each 1000 nM (FIG. 5)
Method: Platelet-rich plasma from fresh whole blood in sodium citrate was prepared by centrifugation of anticoagulated whole blood at 150 g for 20 min. After incubation of 0.45 ml of platelet rich plasma with different kininogen forms as indicated in the figure legends, and addition of 5 μl of […] at a final concentration of 5 μM, platelet aggregation was induced. Aggregation was quantitated by following the change in light transmission in a standardized aggregometer.
FIG. 5 Adenosin-diphosphate (5 μM)-induced aggregation of platelet-rich plasma was performed in the absence (−) or presence of GST-domain 5 (D5), or the peptides HK483 and HK486 (each 1000 nM). Platelet aggregation is presented as % of control.

[1] = molecular target: T1, platelet αIIbβ3-integrin with vitronectin (Homo sapiens, UniProt P04004); assay: Binding of vitronectin to αIIbβ3-integrin; settings: vitronectin 2 μg/ml, immobilized αIIbβ3-integrin 5 μg/ml, 10 μM ZnCl2 (FIG. 3)
T1 sequence (P04004 20-478): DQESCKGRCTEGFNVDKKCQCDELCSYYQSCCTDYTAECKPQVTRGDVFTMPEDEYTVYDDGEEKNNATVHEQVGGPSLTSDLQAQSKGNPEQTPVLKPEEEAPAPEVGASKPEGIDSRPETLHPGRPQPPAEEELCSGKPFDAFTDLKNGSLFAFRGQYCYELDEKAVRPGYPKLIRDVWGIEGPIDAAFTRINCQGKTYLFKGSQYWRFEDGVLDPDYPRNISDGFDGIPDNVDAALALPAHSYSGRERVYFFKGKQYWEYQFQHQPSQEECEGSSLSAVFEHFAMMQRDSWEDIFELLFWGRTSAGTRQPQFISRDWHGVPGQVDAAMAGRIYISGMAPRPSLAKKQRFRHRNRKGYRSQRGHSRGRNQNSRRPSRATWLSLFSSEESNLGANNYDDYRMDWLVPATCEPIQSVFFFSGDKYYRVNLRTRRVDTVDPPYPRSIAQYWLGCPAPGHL
Method: Microtiter plates were coated with 5 μg/ml αIIbβ3-integrin in Tris-buffered saline, pH 7.4, containing 1 mM CaCl2, 1 mM MgCl2 overnight at 4° C. and then blocked with 3% (w/v) bovine serum albumin. Binding of multimeric vitronectin (2 μg/ml) was performed in a final volume of 50 μl Tris-buffered saline containing 0.1% Tween-20, 0.3% (w/v) bovine serum albumin, 1 mM CaCl2 and 1 mM MgCl2 for 2 h at 22° C. in the absence or presence of 10 μM ZnCl2 and different kininogen forms. After the incubation period, monoclonal anti-vitronectin antibody VN7 at a concentration of 125 ng/ml was added, followed by addition of 1:1000 diluted peroxidase-conjugated goat anti-mouse immunoglobulins, respectively. Binding was quantitated as described above.
FIG. 3 The binding of vitronectin (2 μg/ml) to immobilized αIIbβ3-integrin (5 μg/ml) in the absence or presence of increasing concentrations of PAI-1 (filled squares), HKa (filled circles) or GST-domain 5 (open circles) in a buffer containing 10 μM ZnCl2 was carried out. Specific binding is presented as absorbance at 405 nm.

PAI-1 = assay: Urokinase-mediated clot lysis in the presence of PAI-1; assay type: biochemical; settings: not shown
platelets = assay: Platelet adhesion onto vitronectin-coated plates; assay type: cell-based; settings: competitors each 250 nM (FIG. 4)
Method: Multiwell plates were coated with 5 μg/ml multimeric vitronectin (dissolved in bicarbonate buffer, pH 9.6) and blocked with 3% (wt/vol) bovine serum albumin for 16 h at 4° C. Platelets stained with calcein acetoxymethyl ester (calcein-AM, 2.5 μM) (15 min at 37° C. in the dark) at a density of 5×10^6 cells suspended in 50 μl HEPES-Tyrode buffer containing 4 mM MgCl2 were added together with the respective competitors and incubated for 30 min at 37° C. After three washes with phosphate buffered saline, bound platelets were lysed with 100 μl of lysis buffer (150 mM NaCl, 10 mM Tris-CH1, pH 7.5, 5 mM EDTA, 1% (wt/vol) NP-40, 1 mM phenyl-methylsulfonyl fluoride, 20 μg/ml soybean trypsin inhibitor) and quantified in a fluorescent plate reader (excitation filter 492 nm, emission filter 535 nm).
FIG. 4. The adhesion of platelets to vitronectin in the absence (−) or presence of HK, HKa, GST-domain 5(D5), or the peptides HK483 and HK486 (each 250 nM) was carried out. Cell adhesion is presented as % of control.

[2] = molecular target: T2, binding of PAI-1 to vitronectin in PAI-1-depleted extracellular matrix of endothelial cells (Homo sapiens, UniProt P04004); assay: Binding of PAI-1 to endothelial cell matrix; settings: 2 μg/ml PAI-1; competitors each 500 nM; 10 μM ZnCl2 (FIG. 1)
T2 construct: The extracellular matrix of human umbilical vein endothelial cells was prepared according to standard procedures; endogenous in cells; host or cells: extracellular matrix of human umbilical vein endothelial cells, glycine-treated
T2 sequence (P04004 20-478): T1 sequence (P04004 20-478)
Method: The extracellular matrix of human umbilical vein endothelial cells was prepared according to standard procedures. PAI-1-depleted extracellular matrix was obtained by subsequent incubation with glycine (0.1 M, pH 2.3) for 2 h at 25° C. Wells were washed and blocked with phosphate buffered saline containing 3% (wt/vol) bovine serum albumin before proceeding with binding assays. Binding of PAI-1 (2 μg/ml) to the extracellular matrix was performed in a final volume of 50 μl Tris-buffered saline containing 0.1% Tween-20, 0.3% (wt/vol) bovine serum albumin for 2 h at 22° C. in the absence or presence of […] and different kininogen forms. Following the incubation period and a washing step, bound PAI-1 was quantitated by anti-human PAI-1 monoclonal antibody 12A4, followed by addition of 1:1000 diluted peroxidase-conjugated goat anti-mouse immunoglobulins. The conversion of the substrate 2,2,-azino-di(3-ethyl) benz-thiazoline sulphate was monitored at 405 nm in a Thermomax microtiter plate reader. […]
FIG. 1 The binding of 2 μg/ml PAI-1 to PAI-1-depleted (2 h glycine preincubation) extracellular matrix of cultured endothelial cells was tested in the absence (−)or presence of HK, HKa, GST-domain 5 (D5), the peptides HK483 and HK486 (each 500 nM) in a buffer containing 10 μM ZnCl2. Specific binding of PAI-1 is presented as absorbance at 405 nm.

Gly-486-Lys-502 (GKHKNKGKKNGKHNGWK; UniProt P01042 504-520, looked up, fragment) [HK486, peptide derived from the carboxy-terminus of the domain 5 of HK]
aggregation of platelet-rich plasma (platelet-rich plasma): inhibit | interaction of platelet αIIbβ3-integrin with vitronectin [1]: block | urokinase-mediated clot lysis, which is inhibited in the presence of PAI-1 (PAI-1): enhance | αIIbβ3-integrin-mediated platelet adhesion to vitronectin (platelets): block | binding of PAI-1 to vitronectin in PAI-1-depleted (glycine-treated) extracellular matrix of endothelial cells [2]: inhibited
